In ChEMBL document CHEMBL1156829 (Proc Natl Acad Sci U S A, 2008):

What was measured:
Plasmodium falciparum [1] = test: NOVARTIS: Inhibition of Plasmodium falciparum W2 (drug-resistant) proliferation in erythrocyte-based infection assay; assay type: functional, organism-based; settings: Plasmodium falciparum, W2; read-out: EC50
[2] = NOVARTIS: Cytotoxicity against human hepatocellular carcinoma cell line (Huh7); assay type: toxicity, cell-based, Huh-7; settings: Huh7 cells (hepatocellular carcinoma cell line)
Plasmodium falciparum [3] = test: NOVARTIS: Inhibition of Plasmodium falciparum 3D7 (drug-susceptible) proliferation in erythrocyte-based infection assay; assay type: functional, organism-based; settings: Plasmodium falciparum, 3D7

| SMILES | EC50 (Plasmodium falciparum [1]) [nM] | CC50 [2] [nM] | EC50 (Plasmodium falciparum [3]) [nM] |
| --- | --- | --- | --- |
| Nc1c(C(=O)Nc2ccc(F)cc2)sc2nc3c(c(-c4cccs4)c12)CCCCC3 | 388 | > 100000 | 937 |
| COc1cccc(NC(=O)c2ccc(NCCCN3CCC(C)CC3)c([N+](=O)[O-])c2)c1 | 521 | 18700 | 296 |
| Cc1oc2c(c1C(=O)NCC1CCCO1)C(=O)c1ccccc1C2=O (centres undefined) | 481 | 6930 | 1180 |
| CCCCCCN(C(=O)c1cccc(C(F)(F)F)c1)C(CC)c1nc2ccccc2c(=O)n1-c1ccccc1OC (centres undefined) | 790 | > 10000 | 793 |
| CCOc1ccc(C(=O)C(C)[n+]2cc(-c3ccc(OC)cc3)n3c2CCC3)cc1 (centres undefined) | 595 | 33200 | 506 |
| COCCOC(=O)C1=C(C)NC2=C(C(=O)CC(c3ccc(OC)c(OC)c3)C2)C1c1ccc(Cl)cc1Cl (centres undefined) | 13.1 | > 100000 | 22.4 |
| CC(C)CNC(=O)c1cnc(NCCCN)nc1NC1CCCC1 | 26.7 | > 10000 | 635 |
| O=C1CC(c2cccc([N+](=O)[O-])c2)c2cc3c(cc2N1)OCO3 (centres undefined) | > 11800 | > 100000 | > 10200 |
| COC(=O)C1=C(C)NC2=C(C(=O)CC(c3ccc(OC)c(OC)c3)C2)C1c1ccc(Cl)cc1Cl (centres undefined) | 14.3 | > 100000 | 169 |
| c1ccc(CCNc2ncnc3c2[nH]c2ccccc23)cc1 | 136 | 15600 | 167 |
| N#Cc1c2c(c(N3CCN(Cc4ccccc4)CC3)n3c1nc1ccccc13)CCC2 | 248 | > 100000 | 311 |
| CCC(CC)C(=O)Nc1c2c(nn1-c1cccc(Cl)c1)C[S+]([O-])C2 (centres undefined) | 1300 | > 100000 | 11900 |
| COc1cccc(-c2ccc(O)c(CNCC3CCCCC3)c2)n1 | 17.7 | 46600 | 58.5 |
| OCCNc1nc(Nc2ccc(Cl)cc2)nc2ccccc12 | 508 | 11600 | 321 |
| Cc1ccc(C(=O)Oc2ccccc2-c2nc3ccccn3c2NC(C)(C)CC(C)(C)C)cc1[N+](=O)[O-] | 67.5 | > 10000 | 1240 |
| CCCC1=NN(c2nc3ccccc3s2)C(=O)C1 | > 644 | > 10000 | > 1250 |
| CC(C)(C)CC(C)(C)Nc1c(-c2ccccc2OC(=O)c2ccc([N+](=O)[O-])cc2)nc2ccccn12 | 5.28 | 1480 | 251 |
| CC1CCN(Cc2c(O)ccc3cc(-c4nc5ccccc5s4)c(=O)oc23)CC1 | 1470 | > 100000 | > 12500 |
| COc1cc2c3cc1Oc1c(OC)c(OC)cc4c1C(Cc1ccc(O)c(c1)Oc1ccc(cc1)CC3N(C)CC2)N(C)CC4 (centres undefined) | 1060 | > 10000 | 997 |
| COc1cc2nc(Nc3cccc(F)c3)nc(N)c2cc1OC | 358 | 20100 | 148 |
| CCCNc1nc(OC(C(F)(F)F)C(F)(F)F)nc(OC(C(F)(F)F)C(F)(F)F)n1 | > 702 | > 10000 | > 1580 |
| COc1ccc(N2C(=O)C3C(C2=O)C2(c4ccccc4)C(=O)C3(c3ccccc3)C(c3ccc4c(c3)OCO4)=C2c2ccc3c(c2)OCO3)c([N+](=O)[O-])c1 (centres undefined) | 938 | > 100000 | 1160 |
| CC1CCN(C2=C(NC3CCCC3)C(=O)c3ccccc3C2=O)CC1 | 14.2 | 24400 | 9.08 |

| SMILES | EC50 (Plasmodium falciparum [1]) [nM] | CC50 [2] [nM] | EC50 (Plasmodium falciparum [3]) [nM] |
| --- | --- | --- | --- |
| COc1cccc(C(=O)N(C)CCCNc2ccnc3cc(Cl)ccc23)c1 | 208 | 5930 | 390 |
| Cc1ccc(-n2cc(C(=O)N(C)Cc3ccccc3)c3ccccc3c2=O)cc1C | 2930 | > 100000 | > 9840 |
| O=c1cc(C(F)(F)F)c2cc(Cl)c(O)cc2o1 | 2120 | > 100000 | > 12500 |
| c1ccc(N=c2sc(-c3ccccc3)cn2CCCCCCn2cc(-c3ccccc3)sc2=Nc2ccccc2)cc1 | 525 | > 10000 | 739 |
| CCOC(=O)C1CSC(c2ccc(C(F)(F)F)cc2)N1C(=O)/C=C/c1ccccc1 (centres undefined) | 381 | > 7950 | > 1340 |
| O=C(COc1ccc(Cl)cc1)NCCCCNc1ccnc2cc(Cl)ccc12 | 303 | > 9740 | 240 |
| CCCCNC(=O)CCCNC(=O)Cn1cnc2sc3c(c2c1=O)CCCC3 | > 683 | > 10000 | > 1250 |
| COc1ccc(OCC(=O)Nc2c(C)n(C)n(-c3ccccc3)c2=O)cc1 | > 1160 | > 10000 | > 1250 |
| CCCCC(=O)N(C)CCCNc1ccnc2cc(Cl)ccc12 | 154 | > 10000 | 124 |
| COc1ccc(OC)c(-c2ccc(O)c(CN(C)CC(O)c3ccccc3)c2)c1 (centres undefined) | 124 | 66300 | 243 |
| CCc1c(C)nc(SCC(=O)NNC(C)=O)nc1O | > 1030 | > 10000 | > 1250 |
| COc1cccc(C2Sc3ccccc3NC3=C2C(=O)c2ccccc23)c1 (centres undefined) | 362 | > 100000 | 577 |
| Cc1ccccc1-c1cnnc(NCC2CCCCO2)n1 (centres undefined) | 4820 | > 100000 | 11100 |
| Oc1ccc(-c2ccccc2)cc1CNCCc1ccc(F)cc1 | < 9.74 | > 10000 | 691 |
| Cc1c2cnn(CC(=O)O)c(=O)c2c(C)n1Cc1cccc(Cl)c1 | 789 | > 100000 | > 12500 |
| Cc1nc(-c2ccc[n+](C)c2)sc1C(=O)C=Cc1ccc(Cl)cc1 | 797 | 65200 | 341 |
| CCOC(=O)C1=C(CC)NC2=C(C(=O)CCC2)C1c1ccc(N(C)C)cc1 (centres undefined) | 1910 | > 100000 | 8700 |
| CCOC(=O)C1=C(C)NC2=C(C(=O)CC(c3ccc(OC)c(OC)c3)C2)C1c1ccccc1OC (centres undefined) | 49.2 | > 100000 | 74.1 |
| COc1ccc(Nc2nc3nonc3nc2NN=Cc2cc(Cl)ccc2O)cc1 | 1620 | > 3170 | 1780 |
| CCc1c(C)c(C#N)c2nc3ccccc3n2c1NCc1ccccc1 | 238 | > 100000 | 787 |
| O=C(Nc1ccccc1)C(=Cc1ccncc1)NC(=O)c1ccccc1 | 870 | > 100000 | > 2700 |
| O=C(Nc1ccccc1C(=O)O)c1cccc(NC(=O)c2ccco2)c1 | 471 | > 10000 | > 947 |
| O=C(Nc1ccccc1Cl)NC1(C(=O)NCC2CCCO2)CCCCC1 (centres undefined) | > 1250 | > 10000 | > 984 |

| SMILES | EC50 (Plasmodium falciparum [1]) [nM] | CC50 [2] [nM] | EC50 (Plasmodium falciparum [3]) [nM] |
| --- | --- | --- | --- |
| CC(=O)N(C1=C(N2CCOCC2)C(=O)c2ccccc2C1=O)c1ccc(F)cc1 | 14 | 173 | 12.9 |
| CCCNCC(O)COc1ccccc1C(=O)CCc1ccccc1 (centres undefined) [PROPAFENONE] | 116 | 28900 | 252 |
| CCOc1cc(S(=O)(=O)N2CCCC3(CCCCC3)C2)c(OCC)cc1-n1cnnn1 | > 563 | > 10000 | > 1250 |
| Cc1cc(=O)oc2c1ccc1oc(C(=O)c3ccccc3)c(C)c12 | 392 | > 100000 | 441 |
| COc1ccc(C2CC(=O)C3=C(C2)NC(C)=C(C(=O)OC(C)C)C3c2cccc(Cl)c2)cc1OC (centres undefined) | 31.8 | 16000 | 71.3 |
| O=C(NNc1ccccc1F)C1CCC1 | 40.6 | > 10000 | 490 |
| COc1cccc(-c2ccc(O)c(CNC(C)c3cccc4ccccc34)c2)n1 (centres undefined) | 48.4 | 61200 | 285 |
| CCOC(=O)C1=C(C)NC2=C(C(=O)C(C(=O)OC)C(C)C2)C1c1cc(Br)c(OCC)c(OC)c1 (centres undefined) | 39.6 | > 100000 | 255 |
| CC(C)NC(=O)c1ccc2c(c1)N=C(/C=C/c1ccccc1)N(CC1CCCCC1)C2 | 696 | > 10200 | > 1250 |
| CCC1CCCCN1C(=O)C1CC(=O)N(c2ccc(OC)cc2)C1c1ccc(OC)cc1 (centres undefined) | 394 | > 100000 | 387 |
| COc1ccc(CN2CCC(C(=O)Nc3ccc(Oc4cccnc4)cc3)CC2)cc1 | 640 | 59400 | 2220 |
| COc1cc(OC)cc(C(=O)N(C)CCCNc2ccnc3cc(Cl)ccc23)c1 | 116 | 4700 | 143 |
| CCOC(=O)c1c(CSc2ccccc2)oc2cc(CN(C)C)c(O)c(Cl)c12 | 210 | 61600 | 321 |
| CCOC(=O)c1c(C)n(Cc2ccccc2)c2c1cc(O)c1c2c(-c2ccccc2)nn1-c1ccccc1 | 345 | > 100000 | 1060 |
| Cc1nc(N2CCCCC2)c2c(C)c(C(=O)N3CCN(c4ccccc4F)CC3)sc2n1 | 1300 | > 10000 | > 1540 |
| Cc1cc(Nc2ccc(Br)cc2)n2nc(C)nc2n1 | 595 | > 100000 | 728 |
| CC(=O)Nc1ccc2c(c1)C(=O)N(C(CC(C)C)C(=O)NCC(=O)O)[C@@H](CCC(=O)OCc1ccccc1)C(=O)N2 (some centres undefined) | > 503 | > 10000 | 48.2 |
| C[C@@H]1C[C@@H](C)C(=O)[C@@H](C(O)CC2CC(=O)NC(=O)C2)C1 (some centres undefined) | 366 | 2140 | 153 |
| CCOC(=O)c1cnc2ccc(OC)cc2c1Cl | 1250 | > 100000 | 2760 |
| CC(=NO)c1ccc(NC2=C(N3CCCCC3)C(=O)c3ccccc3C2=O)cc1 | 90 | > 100000 | 94.1 |
| CCN1CCN(c2cc(C)c3cc(NC(=O)c4cccc([N+](=O)[O-])c4)ccc3n2)CC1 | 267 | 20300 | 96 |
| O=C1C(Nc2ccc(Cl)cc2)=C(N2CCCCC2)C(=O)c2ccccc21 | 250 | 53200 | 319 |
